From US4602927A, “4-alkylimidazole derivatives and their use as nitrification inhibitors” (BASF Aktiengesellschaft, priority 1983, dated 1986)

The compounds below were run on nitrification (assay: % inhibition of nitrification in soil (ammonium sulfate remaining in loamy sandy soil, Nessler reagent, 420 nm)). Conditions: 1 ppm based on moist soil, 50% of maximum water capacity, 28 days at 21° C., 220 mg ammonium sulfate per 200 g soil, versus untreated soil.
Experimental: 220 mg of ammonium sulfate were mixed thoroughly with 200 g of a loamy sandy soil whose moisture content had been brought to 50% of the maximum water capacity. The active ingredients, dissolved in 0.2 ml of acetone, were then added in amounts of 1 ppm, based on moist soil. After careful, thorough mixing, and evaporation of the acetone, the soil samples were incubated for 28 days at 21° C., together with the controls without added active ingredient, 1 liter glass vessels covered with aluminum foil to avoid loss of water.
2.5 g of each of the soil samples were then introduced into 100 ml conical flasks, and 22.5 ml of a 0.1N sodium sulfate solution was added. The flask was shaken for 30 minutes, after which the mixture was filtered, and 2.5 ml samples of the soil extracts were mixed with […] of distilled water. To detect the ammonium ions still present in the soil extract, 1.25 ml of Nessler reagent were then added, and the mixture was shaken thoroughly. The color changes were then measured photometrically at a wavelength of 420 nm. The amounts of ammonium sulfate still present in the soil samples were then determined with reference to standard curves obtained by a measurement of solutions containing known amounts of ammonium sulfate. The percentage inhibition of nitrification in the treated soil samples compared with the untreated soil samples (to which only ammonium sulfate had been added) was calculated using the following formula: [formula] a=nitrification rate for ammonium sulfate b=nitrification rate for ammonium sulfate+nitrification inhibitor

Point of comparison: `Cc1ccn(C(=O)NOc2ccccc2)n1` [A, 1-phenoxycarbamyl-3-methylpyrazole, reference compound], “% inhibition of nitrification 4 weeks after the addition of 1 ppm of active ingredient to the soil” value 69%. Against it:
- CNC(=O)n1cnc(C)c1Cl [Example 1, 1-N-methylcarbamyl-4-methyl-5-chloroimidazole] — higher, 94%
- Cc1ncn(C(=O)Nc2ccccc2)c1Cl [Example 3, 1-N-phenylcarbamyl-4-methyl-5-chloroimidazole] — higher, 85%
- Cc1ncn(C(=O)Nc2ccc(Cl)c(Cl)c2)c1Cl [Example 4, 1-N-(3,4-dichlorophenyl)-carbamyl-4-methyl-5-chloroimidazole] — higher, 71%
